Measurements as given in PubChem BioAssay AID463204 (Broad Institute, 2010).
Activity calls are given as the source filed them.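 How the source made its calls: active means AC50 no more than ten times the top concentration tested, that is within one log above it; inconclusive means flat curve fit with activity between 30% and 70%, or invalid poor fit; inactive means AC50 beyond ten times the top tested dose.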

test system: S. cerevisiae Mot1-301 ts growth rescue, BacTiter-Glo ATP luminescence; experiment: restored Mot1-301 yeast growth at 38.5C – whole organism, S. cerevisiae, Mot1-301 ts mutant, luminescence, dose retest, SUMOylation pathway inhibitor project, confirmation (AID 463204);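 further: growth at restrictive 38.5 degrees C of Mot1-301 OY566 strain; actives raise luminescence by restoring growth of the ts mutant at high temperature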

Compound | AC50
CCC1CCCCN1CCCNC(=O)C1CCC(CNS(=O)(=O)c2c(C)cc(C)cc2C)CC1 (stereo not given) | > 42 µM (inactive)
Cc1ccc(NC(=O)CSCC(=O)Nc2ccccc2N2CCCC2)cc1 | > 42 µM (inactive)
CNC(=O)COC(=O)c1cc(-c2ccco2)nc2ccccc12 | > 42 µM (inactive)
CN1c2ccccc2-c2nc3ccccc3n2C1c1ccncc1 (stereo not given) | > 42 µM (inactive)
COC(=O)c1cccc(NC(=O)c2ccc[n+]([O-])c2)c1 | > 42 µM (inactive)
CCOc1ccc(Cn2c(SCCCCC#N)nc3c2c(=O)n(C)c(=O)n3C)cc1OCC | > 42 µM (inactive)
O=C1c2cccc3c(N4CCCCC4)ccc(c23)C(=O)N1CCO | > 42 µM (inactive)
O=C(NCCc1cnccn1)C1CCC(=O)N(Cc2ccc(Cl)cc2)C1 (stereo not given) | > 42 µM (inactive)
CS(=O)(=O)N(CC(=O)Nc1ccccc1C(=O)N1CCCC1)c1ccc2c(c1)OCO2 | > 42 µM (inactive)
COc1ccc(-c2csc(NC(=O)C3CSC4(C)CCC(=O)N34)n2)cc1 (stereo not given) | > 42 µM (inactive)
O=C(CCN1C(=O)S/C(=C/c2ccccc2)C1=O)Nc1ccc(O)c(C(=O)O)c1 | > 42 µM (inactive)
CC1=C(C#N)S(=O)(=O)C(C#N)C(c2ccccc2)C1 (stereo not given) | > 42 µM (inactive)
O=C(COC(=O)COc1ccccc1Cl)Nc1ccccc1OC(F)F | > 42 µM (inactive)
COc1ccccc1N1CCN(C(=O)c2ccc(-c3ccccc3)cc2)CC1 | > 42 µM (inactive)
CC(C)Cc1nc(N2CCOCC2)c(C#N)c2c1CCC2 | > 42 µM (inactive)
O=C(NCCN1CCOCC1)Nc1ccc(Cl)cc1Cl | > 42 µM (inactive)
COc1cc(/C=N/NC(=S)NCc2ccco2)cc(OC)c1OC | > 42 µM (inactive)
CC(=O)N1CCc2cc(S(=O)(=O)CCC(=O)N3CCN(C(=O)c4ccco4)CC3)ccc21 | > 42 µM (inactive)
CCOC(=O)c1oc2c(c1C)C(=O)CCC2 | > 42 µM (inactive)
N=c1c[n+](C2CCCCC2)[n-]o1 | > 42 µM (inactive)
CC1CCN(C(=O)Cn2cnc3c2c(=O)n(C)c(=O)n3C)c2ccccc2S1 (stereo not given) | 7.66 µM
N#CCC(=O)N/N=C/c1ccc(OS(=O)(=O)c2ccccc2)cc1 | > 42 µM (inactive)
O=C1C2CCCN2C(=S)N1C1CCCCC1 (stereo not given) | > 42 µM (inactive)
COc1cccc(NC(=O)CNC(=O)c2ccc(C)cc2)c1 | > 42 µM (inactive)
COC(=O)C12CCC3(SCCS3)C(C(=O)OC)(CCC13SCCS3)C2 | 7.24 µM

Compound | AC50
COc1ccc(C2SCC(=O)Nc3c2c(=O)[nH]n3C2CCCCC2)cc1 (stereo not given) | > 42 µM (inactive)
On1c(-c2ccccc2Cl)nc2ncccc21 | > 42 µM (inactive)
COc1cc(/C=N/NC(=O)c2cccc([N+](=O)[O-])c2)ccc1O | > 42 µM (inactive)
O=C(/C=C/c1ccc(F)cc1)NCC1(c2ccccc2)CCOCC1 | > 42 µM (inactive)
O=C(CCC(=O)Nc1ccc(F)cc1)N/N=C/c1cccs1 | > 42 µM (inactive)
COc1cc(C(=O)NCCC2=CCCCC2)ccc1OC1CCN(C(C)=O)CC1 | > 42 µM (inactive)
COc1ccc(NC(=O)Cn2nnc(C(=O)Nc3ccc(F)c(Cl)c3)c2N)cc1 | > 42 µM (inactive)
CC(=O)NCc1c(Cl)cccc1-n1cccc1 | > 42 µM (inactive)
Cc1cccc(C)c1NC(=O)C(Cl)C(=O)c1ccccc1 (stereo not given) | 0.68 µM
Oc1c(Br)cc(Br)cc1/C=N/n1c(-c2ccccc2)n[nH]c1=S | 26.2 µM
C=CCC(NCCCO)c1cccc(OC)c1OC (stereo not given) | > 42 µM (inactive)
COc1cc(NC(=O)CCN2CCN(Cc3ccccc3)CC2)cc(OC)c1 | > 42 µM (inactive)
Cc1c(C(=O)N2CCCC2)c(S(=O)(=O)Nc2cccc(Br)c2)c(C)n1C | > 42 µM (inactive)
Cc1ccc(C(C(=O)NC2CCCCC2)N(CCC(C)C)C(=O)CNC(=O)c2ccco2)o1 (stereo not given) | > 42 µM (inactive)
O=C(CCc1ccccc1)NNC(=S)Nc1ccc(F)cc1 | > 42 µM (inactive)
COc1ccc(-n2c3c(cc(C(=O)NCC(=O)c4ccccc4)c2=O)C(=O)CC(C)(C)C3)cc1 | > 42 µM (inactive)
O=C(O)/C=C/c1cccnc1 | > 42 µM (inactive)
Cc1ccc(NC(=O)/C=N/OCC(=O)NCc2ccccc2Cl)cc1 | > 42 µM (inactive)
COc1ccc(OCCC(=O)c2ccc(OC)cc2)cc1 | > 42 µM (inactive)
Cc1cc(C)n2c(SCC(C)C)nnc2n1 | > 42 µM (inactive)
COCCCn1c2nc3ccccc3nc2c2c(=O)n(Cc3ccc(Cl)cc3)cnc21 | > 42 µM (inactive)
COc1ccc(C(=O)OCC(=O)c2ccccc2)cc1S(=O)(=O)N1CCOCC1 | > 42 µM (inactive)
Cc1ccc(S(=O)(=O)N2c3ccc(S(N)(=O)=O)cc3CC2C)cc1 (stereo not given) | > 42 µM (inactive)
CC1=C(C(=O)OCc2ccccc2)C(c2cccc(F)c2)NC(=O)N1 (stereo not given) | > 42 µM (inactive)
CC(NC(=O)C1CCCN(S(=O)(=O)N2CCOCC2)C1)c1ccccc1 (stereo not given) | > 42 µM (inactive)

Compound | AC50
Cc1cc(C)n(C(=O)c2ccccc2[N+](=O)[O-])n1 | > 42 µM (inactive)
CCCOc1ccccc1C1NC(=O)NC(C)=C1C(=O)OCCOCC (stereo not given) | > 42 µM (inactive)
O=C(Nc1nc2ccccc2s1)c1cccc(S(=O)(=O)N2CCc3ccccc32)c1 | > 42 µM (inactive)
O=C(NCCCN1CCOCC1)C1CCC(=O)N1CCc1ccccc1 (stereo not given) | > 42 µM (inactive)
CCOc1ccccc1CN1CCNC(=O)C1CC(=O)NCCN1CCOC1=O (stereo not given) | > 42 µM (inactive)
Cc1ccc(-c2csc(NC(=O)CSc3nc(C)cs3)n2)cc1 | > 42 µM (inactive)
O=C(N/N=C/C(Br)=C/c1ccccc1)c1cccnc1 | 21.5 µM
CCc1cc2c(=O)c(-c3ccc(F)cc3)c(C(F)(F)F)oc2cc1OCC(=O)O | > 42 µM (inactive)
Cc1ccc(NC2CC(=O)N(c3ccc(N4CCCCC4)cc3)C2=O)cc1 (stereo not given) | > 21 µM (inactive)
COc1ccccc1CNc1nc(SC)ncc1CO | > 42 µM (inactive)
CCN1CCCC1CN(Cc1cc2ccc(C)cc2[nH]c1=O)C(=S)Nc1ccccc1C(=O)OC (stereo not given) | > 42 µM (inactive)
CCOC(=O)C1C(c2ccc(C)o2)NC(=O)NC1(O)C(F)(F)F (stereo not given) | > 42 µM (inactive)
O=C(Cc1ccccc1)N1CCCC1c1ccccc1 (stereo not given) | > 42 µM (inactive)
COC(=O)C(CC(C)C)NC(=O)CNC(=O)c1ccccc1C (stereo not given) | > 42 µM (inactive)
O=C(N/N=C/c1cccs1)c1cncc(Br)c1 | > 42 µM (inactive)
Cc1ccc(C(=O)NCCCN2CCOCC2)cc1 | > 42 µM (inactive)
CC(=O)c1cccc(N2C(=NC(=O)C3CCCCC3)SC3CS(=O)(=O)CC32)c1 (stereo not given) | > 42 µM (inactive)
COCC(C)n1c(C)cc(C(=O)CSc2ccc(NC(C)=O)cc2)c1C (stereo not given) | > 42 µM (inactive)
Cc1ccc(C)c(OCCCC(=O)N2CCOCC2)c1 | > 42 µM (inactive)
NC(=O)c1ccccc1NC(=O)c1ccc2c(c1)OCO2 | > 42 µM (inactive)
CCC(C)[C@H](NC(=O)OC(C)(C)C)C(=O)NCC1CCC(C(=O)N[C@@H](Cc2ccccc2)C(=O)O)CC1 (stereo not given in full) | > 42 µM (inactive)
Cc1c(C)c2c(c(C)c1O)CCC(C)(C(=O)O)O2 (stereo not given) | > 42 µM (inactive)
COc1ccc(NC(=O)CSc2nnc(-c3ccccn3)n2-c2ccccc2)cc1OC | > 42 µM (inactive)
Cc1cc(O)c(/C=N/Nc2cccc(Cl)c2)c(=O)o1 | 3.95 µM
NC(=O)NC(=O)CSc1nc(C2CCCCC2)n(-c2ccccc2)n1 | > 42 µM (inactive)

Compound | AC50
Cc1ccc(NC(=S)N2CCN(Cc3ccc4c(c3)OCO4)CC2)c(C)c1 | > 42 µM (inactive)
CC1(C)Cc2nc3sc4c(OCc5ccccc5)ncnc4c3cc2CO1 | > 42 µM (inactive)
CCCCn1c(/C=N/Nc2nc3ccccc3[nH]2)nc2ccccc21 | 3.98 µM
O=C1NC(c2ccccc2)C(C(=O)c2cccs2)C(O)(C(F)(F)F)N1 (stereo not given) | > 42 µM (inactive)
NS(=O)(=O)c1cccc(NC(=O)c2cccnc2Oc2ccccc2)c1 | > 42 µM (inactive)
COc1cc(NC(=O)c2ccccc2F)c(OC)cc1NC(=O)CN1CCCCC1 | > 42 µM (inactive)
Cc1cc(C)cc(N2C(=O)CC(Sc3ncn[nH]3)C2=O)c1 (stereo not given) | 1.92 µM
CC(=O)c1ccc(N2CCN(CC(=O)Nc3cc(C)on3)CC2)cc1 | > 42 µM (inactive)
Cc1ccc(C(C(=O)Nc2ccc3c(c2)OCO3)N(C)C(=O)/C=C\c2ccc3c(c2)OCO3)cc1 (stereo not given) | > 42 µM (inactive)
CCCCCC(=O)Nc1ccc(-c2csc(N)n2)cc1 | > 42 µM (inactive)
N#Cc1ccc(C23CC4(C2)[C@H](CN(Cc2ccc(C(F)(F)F)cc2)[C@@H]4c2ccccc2)C3c2ccc(C(F)(F)F)cc2)cc1 (stereo not given in full) | > 42 µM (inactive)
O=S(=O)(NCC1CCCN(Cc2ccccc2O)C1)c1cccc2cccnc12 (stereo not given) | > 42 µM (inactive)
O=C(NC1CCCC1)C(c1cccs1)N(C(=O)c1ccno1)c1ccccc1 (stereo not given) | > 42 µM (inactive)
O=C(Nc1cccnc1Cl)c1cc2ccccc2o1 | > 42 µM (inactive)
CN(C(=O)CSc1nc(-c2ccccc2)c(-c2ccccc2)o1)C1CCS(=O)(=O)C1 (stereo not given) | > 42 µM (inactive)
CCCCCCCCCCOC(=O)Cn1c(COc2ccc(OC)cc2)[n+](C)c2ccccc21 | 6.72 µM
COc1ccc(N2C(=O)CCC(C(=O)NCc3cccnc3)C2c2ccc(OC)c(OC)c2)cc1 (stereo not given) | > 42 µM (inactive)
COc1ccc(Nc2cc(NCCCO)c([N+](=O)[O-])c3nonc23)cc1 | > 42 µM (inactive)
CC(C)C(=O)Nc1ccc(-c2nc3cccnc3o2)cc1 | > 42 µM (inactive)
O=C(c1cc(N2C(=O)C3C4CCC(C4)C3C2=O)ccc1Cl)N1CCCCCC1 (stereo not given) | > 42 µM (inactive)
Cc1[nH]n(-c2ccccc2)c(=O)c1C(C[N+](=O)[O-])c1ccc(Br)cc1 (stereo not given) | > 42 µM (inactive)
CCOC(=O)c1c(C)n(C)c2cc(-c3ccc(C)cc3)c(O)cc12 | > 42 µM (inactive)
O=C(NC(=S)NNC(=O)c1ccccc1O)c1cccc([N+](=O)[O-])c1 | > 42 µM (inactive)
C/C=C\C=C/C(=O)Nc1cccc(C2=NOC3(C2)C[C@@H](C(N)=O)N(C(=O)c2ccccc2)C3)c1 (stereo not given in full) | > 42 µM (inactive)
CCOc1ccc(NC(=O)CN(C)C(=O)c2ccc(OCc3ccccc3)c(OC)c2)cc1OCC | > 42 µM (inactive)
